PubChem BioAssay AID2060612 (Molecular Pharmacology Branch, DTP, NCI, 2025)
pIC50: −log10 of the molar value. Each block holds one compound with its values, some of them ahead of it.

Test system: 565232-114-T-J1-PDC complex spheroid viability
Assay: Anticancer human tumor 565232-114-T-J1-PDC patient-derived bladder carcinoma cell line growth inhibition [CLK]
Details: for pIC50: curve of first compound; for viability, T/C: stronger effect = lower value
In short: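 Patient-derived tumor cells grown as complex spheroids with HUVEC endothelial cells and mesenchymal stem cells, treated with drug combinations. Concentrations descend in half-log steps from near clinical Cmax, or from 10 microM if Cmax unknown.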

[1] = second compound 0.0316 µM, first compound 0.0316 µM
[2] = second compound 0.0316 µM, first compound 0.1 µM
[3] = second compound 0.0316 µM, first compound 0.316 µM
[4] = second compound 0.0316 µM, first compound 1 µM
[5] = second compound 0.0316 µM, first compound 3.16 µM
[6] = second compound 0.0316 µM, first compound 10 µM
[7] = second compound 0.1 µM, first compound 0.0316 µM
[8] = second compound 0.1 µM, first compound 0.1 µM
[9] = second compound 0.1 µM, first compound 0.316 µM
[10] = second compound 0.1 µM, first compound 1 µM
[11] = second compound 0.1 µM, first compound 3.16 µM
[12] = second compound 0.1 µM, first compound 10 µM
[13] = second compound 0.316 µM, first compound 0.0316 µM
[14] = second compound 0.316 µM, first compound 0.1 µM
[15] = second compound 0.316 µM, first compound 0.316 µM
[16] = second compound 0.316 µM, first compound 1 µM
[17] = second compound 0.316 µM, first compound 3.16 µM
[18] = second compound 0.316 µM, first compound 10 µM
[19] = second compound 1 µM, first compound 0.0316 µM
[20] = second compound 1 µM, first compound 0.1 µM
[21] = second compound 1 µM, first compound 0.316 µM
[22] = second compound 1 µM, first compound 1 µM
[23] = second compound 1 µM, first compound 3.16 µM
[24] = second compound 1 µM, first compound 10 µM
[25] = second compound 3.16 µM, first compound 0.0316 µM
[26] = second compound 3.16 µM, first compound 0.1 µM
[27] = second compound 3.16 µM, first compound 0.316 µM
[28] = second compound 3.16 µM, first compound 1 µM
[29] = second compound 3.16 µM, first compound 3.16 µM
[30] = second compound 3.16 µM, first compound 10 µM
[31] = second compound 10 µM, first compound 0.0316 µM
[32] = second compound 10 µM, first compound 0.1 µM
[33] = second compound 10 µM, first compound 0.316 µM
[34] = second compound 10 µM, first compound 1 µM
[35] = second compound 10 µM, first compound 3.16 µM
[36] = second compound 10 µM, first compound 10 µM
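Also: spheroids exposed to compounds for 7 days before readout.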
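For viability, T/C in this document: 100% = DMSO vehicle wells with luminescence normalized to vehicle control.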

- pIC50 (second compound 0.0316 µM): < 5.00
- pIC50 (second compound 0.1 µM): 6.88
- pIC50 (second compound 0.316 µM): > 7.50
- pIC50 (second compound 1 µM): > 7.50
- pIC50 (second compound 3.16 µM): > 7.50
- pIC50 (second compound 10 µM): > 7.50
Compound: CC(CO)NC(=O)c1cc(-c2ccc(Cl)cc2)nn(-c2cnn(C)c2)c1=O (stereo not drawn) + CNC(=O)c1ccc(Nc2nc(OC3CCCC3)c3c(-c4ccc5nc(C)oc5c4)c[nH]c3n2)c(OC)c1
- viability, T/C [1]: 85.2%
- viability, T/C [2]: 74.3%
- viability, T/C [3]: 79.8%
- viability, T/C [4]: 83%
- viability, T/C [5]: 97.6%
- viability, T/C [6]: 117%
- viability, T/C [7]: 50.5%
- viability, T/C [8]: 51.3%
- viability, T/C [9]: 48.8%
- viability, T/C [10]: 47.1%
- viability, T/C [11]: 51%
- viability, T/C [12]: 45.4%
- viability, T/C [13]: 35%
- viability, T/C [14]: 26.5%
- viability, T/C [15]: 32.5%
- viability, T/C [16]: 36.1%
- viability, T/C [17]: 37.7%
- viability, T/C [18]: 34%
- viability, T/C [19]: 22.1%
- viability, T/C [20]: 23.6%
- viability, T/C [21]: 23.7%
- viability, T/C [22]: 21.1%
- viability, T/C [23]: 23.5%
- viability, T/C [24]: 22.5%
- viability, T/C [25]: 17.5%
- viability, T/C [26]: 18.2%
- viability, T/C [27]: 19.7%
- viability, T/C [28]: 18.2%
- viability, T/C [29]: 22%
- viability, T/C [30]: 19%
- viability, T/C [31]: 19.9%
- viability, T/C [32]: 18.1%
- viability, T/C [33]: 18.4%
- viability, T/C [34]: 16.2%
- viability, T/C [35]: 18.4%
- viability, T/C [36]: 17.7%

Compound: CCc1c2c(nc3ccc(O)cc13)-c1cc3c(c(=O)n1C2)COC(=O)[C@]3(O)CC + CN1CCN(c2cc(C(=O)Nc3cc4cc(-c5cnn(C)c5)ccc4cn3)ccn2)CC1
- pIC50 (second compound 0.0316 µM): 7.44
- pIC50 (second compound 0.1 µM): 7.86
- pIC50 (second compound 0.316 µM): > 8.50
- pIC50 (second compound 1 µM): > 8.50
- pIC50 (second compound 3.16 µM): > 8.50
- pIC50 (second compound 10 µM): > 8.50
- viability, T/C (second compound 0.0316 µM, first compound 0.00316 µM): 96.6%
- viability, T/C (second compound 0.0316 µM, first compound 0.01 µM): 61.8%
- viability, T/C [1]: 54.6%
- viability, T/C [2]: 38.5%
- viability, T/C [3]: 16.3%
- viability, T/C [4]: 5.15%
- viability, T/C (second compound 0.1 µM, first compound 0.00316 µM): 113%
- viability, T/C (second compound 0.1 µM, first compound 0.01 µM): 48.3%
- viability, T/C [7]: 39.1%
- viability, T/C [8]: 21.1%
- viability, T/C [9]: 7.93%
- viability, T/C [10]: 3.53%
- viability, T/C (second compound 0.316 µM, first compound 0.00316 µM): 18.2%
- viability, T/C (second compound 0.316 µM, first compound 0.01 µM): 17.8%
- viability, T/C [13]: 13.5%
- viability, T/C [14]: 5.02%
- viability, T/C [15]: 1.56%
- viability, T/C [16]: 2.33%
- viability, T/C (second compound 1 µM, first compound 0.00316 µM): 0.86%
- viability, T/C (second compound 1 µM, first compound 0.01 µM): 0.17%
- viability, T/C [19]: 1.6%
- viability, T/C [20]: 0.24%
- viability, T/C [21]: 0.5%
- viability, T/C [22]: 1.14%
- viability, T/C (second compound 3.16 µM, first compound 0.00316 µM): 0.22%
- viability, T/C (second compound 3.16 µM, first compound 0.01 µM): 1%
- viability, T/C [25]: 0.2%
- viability, T/C [26]: 0.12%
- viability, T/C [27]: 1.33%
- viability, T/C [28]: 2.74%
- viability, T/C (second compound 10 µM, first compound 0.00316 µM): 0.22%
- viability, T/C (second compound 10 µM, first compound 0.01 µM): 1.67%
- viability, T/C [31]: 0.18%
- viability, T/C [32]: 0.17%
- viability, T/C [33]: 1.26%
- viability, T/C [34]: 0.19%

Compound: COc1cccc2c1C(=O)c1c(O)c3c(c(O)c1C2=O)CC(O)(C(=O)CO)CC3OC1CC(N)C(O)C(C)O1 (stereo not drawn) + CN1CCN(c2cc(C(=O)Nc3cc4cc(-c5cnn(C)c5)ccc4cn3)ccn2)CC1
- pIC50 (second compound 0.0316 µM): 6.51
- pIC50 (second compound 0.1 µM): 6.61
- pIC50 (second compound 0.316 µM): > 7.50
- pIC50 (second compound 1 µM): > 7.50
- pIC50 (second compound 3.16 µM): > 7.50
- pIC50 (second compound 10 µM): > 7.50
- viability, T/C [1]: 105%
- viability, T/C [2]: 109%
- viability, T/C [3]: 48.1%
- viability, T/C [4]: 9.14%
- viability, T/C [5]: 0.19%
- viability, T/C [6]: 0.25%
- viability, T/C [7]: 115%
- viability, T/C [8]: 89.1%
- viability, T/C [9]: 40.7%
- viability, T/C [10]: 5.59%
- viability, T/C [11]: 0.19%
- viability, T/C [12]: 0.21%
- viability, T/C [13]: 18.3%
- viability, T/C [14]: 13.6%
- viability, T/C [15]: 6.17%
- viability, T/C [16]: 0.17%
- viability, T/C [17]: 1.79%
- viability, T/C [18]: 0.82%
- viability, T/C [19]: 0.13%
- viability, T/C [20]: 0.18%
- viability, T/C [21]: 0.16%
- viability, T/C [22]: 0.17%
- viability, T/C [23]: 3.15%
- viability, T/C [24]: 0.74%
- viability, T/C [25]: 1.46%
- viability, T/C [26]: 0.16%
- viability, T/C [27]: 0.94%
- viability, T/C [28]: 2.29%
- viability, T/C [29]: 2.17%
- viability, T/C [30]: 1.43%
- viability, T/C [31]: 0.09%
- viability, T/C [32]: 0.11%
- viability, T/C [33]: 0.22%
- viability, T/C [34]: 2.57%
- viability, T/C [35]: 0.16%
- viability, T/C [36]: 1.03%

Compound: CC(=O)O[C@H]1C(=O)[C@@]2(C)[C@H]([C@H](OC(=O)c3ccccc3)[C@]3(O)C[C@H](OC(=O)[C@H](O)[C@@H](NC(=O)c4ccccc4)c4ccccc4)C(C)=C1C3(C)C)[C@]1(OC(C)=O)CO[C@@H]1C[C@@H]2O + CN1CCN(c2cc(C(=O)Nc3cc4cc(-c5cnn(C)c5)ccc4cn3)ccn2)CC1
- pIC50 (second compound 0.0316 µM): > 7.50
- pIC50 (second compound 0.1 µM): > 7.50
- pIC50 (second compound 0.316 µM): > 7.50
- pIC50 (second compound 1 µM): > 7.50
- pIC50 (second compound 3.16 µM): > 7.50
- pIC50 (second compound 10 µM): > 7.50
- viability, T/C [1]: 33.2%
- viability, T/C [2]: 17.3%
- viability, T/C [3]: 18.3%
- viability, T/C [4]: 16.5%
- viability, T/C [5]: 21.1%
- viability, T/C [6]: 20.4%
- viability, T/C [7]: 25.3%
- viability, T/C [8]: 23.1%
- viability, T/C [9]: 20.2%
- viability, T/C [10]: 16.3%
- viability, T/C [11]: 17%
- viability, T/C [12]: 22.6%
- viability, T/C [13]: 7.34%
- viability, T/C [14]: 11.6%
- viability, T/C [15]: 13.5%
- viability, T/C [16]: 12.6%
- viability, T/C [17]: 13.7%
- viability, T/C [18]: 14.9%
- viability, T/C [19]: 1.4%
- viability, T/C [20]: 0.18%
- viability, T/C [21]: 0.18%
- viability, T/C [22]: 0.13%
- viability, T/C [23]: 0.16%
- viability, T/C [24]: 0.95%
- viability, T/C [25]: 0.15%
- viability, T/C [26]: 0.19%
- viability, T/C [27]: 0.17%
- viability, T/C [28]: 1.81%
- viability, T/C [29]: 0.95%
- viability, T/C [30]: 3.05%
- viability, T/C [31]: 0.18%
- viability, T/C [32]: 0.55%
- viability, T/C [33]: 2.34%
- viability, T/C [34]: 0.22%
- viability, T/C [35]: 1.4%
- viability, T/C [36]: 0.16%
